Results: patent US20120088694A1, “CELL ASSAY METHODS AND ARTICLES” (NanoInk, Inc., priority 2010, published 2012)

Tested on: NIH 3T3 fibroblasts
Assay: Fibroblast spreading and migration on fibronectin patterns with PEG hydrogel delivering compound
Type: cell-based
Procedure: An exemplary method is described here for patterning cells onto surfaces using direct deposition of extracellular matrix (ECM) proteins and for delivering multiple compounds to individual cells. First, actin polymerization and stress fiber formation was followed over a 2 hour time period. Second, multiple ECM proteins were patterned on the same substrate and side-by-side analysis of single cells was done to characterize differential responses. Finally, polyethylene glycol with or without Cytochalasin-D (250 μM or 500 μM) was delivered to individual cells. A method was established for single cell analysis with multiple compounds on the same substrate. The NLP 2000 (NanoInk, Inc., Skokie, Ill.) fabrication system was used for patterning of ECM proteins and hydrogel composites. After approximately 4 hours, substrates were rinsed and non-specific cell binding is blocked with a solution of bovine serum albumin. NIH 3T3 fibroblasts (ATCC) were added at high density for 30 minutes, at which point non-adherent cells are washed and removed. Complete media was then added for between 0.5 and 3.5 hours before paraformaldehyde fixation, staining and analysis. Cells attach to approximately 75% of the patterns deposited onto glass surfaces. Cell morphology was controlled and actin polymerization was more developed with more elongated stress fibers at 2 hours versus earlier time points. […] Combinatorial experimentation is increasingly important with regard to the cellular microenvironment.
A mixture of PEG-DMA, 4-arm PEG thiol, and Cytochalasin D, a compound of interest, is patterned onto an epoxy-coated glass slide. After curing with UV, fibronectin, an ECM protein, was patterned onto the glass slide around the cured hydrogel. In a control hydrogel pattern, only PEG-DMA and 4-arm PEG thiol, but not any compound of interest, were used for fabricating the hydrogel.
Subsequently, 3T3 fibroblasts were plated onto the glass slide with PEG and fibronectin as described above. […] FIGS. 11 and 12 show the time course following spreading and migration of fibroblasts over a period of 4 hours.

[1] = cells cultured for 2 hours, Cytochalasin D in the PEG hydrogel vs control hydrogel, 15 patterns per group

Compound: C=C1[C@@H](C)[C@H]2[C@H](Cc3ccccc3)NC(=O)[C@]23[C@H](OC(C)=O)/C=C/[C@@](C)(O)C(=O)[C@@H](C)C/C=C/[C@H]3[C@@H]1O [Cytochalasin D]
- migration of fibroblasts from the fibronectin patterned area (250 and 500 μM in PEG hydrogel, time course over 4 hours, vs PEG without CytoD): prevented migration of fibroblasts from the fibronectin patterned area
- cell spreading and migration (Cytochalasin-D (250 μM or 500 μM) delivered in PEG hydrogel to individual cells): decline in cell spreading and migration
- number of cells on patterns (images, average fluorescence intensity) [1]: significantly fewer cells
- spreading and/or migration away from the patterns [1]: less spreading and/or migration away from the patterns
